# Test results as given in patent publication US20230234967A1, “Fused Azole Heterocycles as AHR Antagonists” (Senda Biosciences, Inc., priority 2021, published 2023).
# Like-named read-outs stand apart in the source and are kept apart here.
# Experiments:
# [1] = Solubility Determination Assay (PBS pH 1.6 and pH 7.4); assay type: physicochemical; settings: PBS buffer, aqueous buffer, kinetic from dmso stock, 2 hours shaking
# Description: Example 31: Solubility Determination Assay
# The stock solutions of test compounds and control compound progesterone were prepared in DMSO at the concentrations of 10 mM. 15 μL of stock solution (10 mM) of each sample was placed in order into their proper 96-well rack. 485 μL of PBS pH 1.6 and pH 7.4 were added into each vial of the cap-less Solubility Sample plate. The assay was performed in singlet. One stir stick was added to each vial and then the vial was sealed using a molded PTFE/Silicone plug. The solubility sample plates were then transferred to the Eppendorf Thermomixer Comfort plate shaker and shaken at 25° C. at 1100 rpm for 2 hours. After completion of the 2 hours, plugs were removed and the stir sticks were removed using a big magnet. The samples from the Solubility Sample plate were transferred into the filter plate. Using the Vacuum Manifold, all the samples were filtered. An aliquot of 5 μL was taken from the filtrate followed by addition of 495 μL of a mixture of H2O and acetonitrile containing internal standard (1:1). A certain proportion of ultrapure water was used to dilute the diluent according to the peak shape. The dilution factor was changed according to the solubility values and the LC-MS signal response.
# From the 10 mM DMSO STD plate, 6 μL was transferred into the remaining empty plate, and then 194 μL of DMSO were added to that plate to have a STD concentration of 300 μM. From the 300 μM DMSO STD plate, 5 μL were transferred into the remaining empty plate, and then 495 μL of a mixture of H2O and acetonitrile containing internal standard (1:1) were added to that plate to have a final STD concentration of 3 μM. A certain proportion of ultrapure water was used to dilute the diluent according to the peak shape. The concentrations of the standard samples were changed according to the LC-MS signal response.
# The plate was placed into the well plate autosampler. The samples were evaluated by LC-MS/MS analysis.
# All calculations were carried out using Microsoft Excel.
# The filtrate was analyzed and quantified against a standard of known concentration using LC coupled with mass spectral peak identification and quantitation. Solubility values of the test compound and control compound were calculated as follows: […]
# Any value of the compounds that was not within the specified limits was rejected and the experiment was repeated.
# “+++” indicates a solubility value equal to or greater than […] “++” indicates a solubility value between 0.1 and 1 μM and “+” indicates a solubility value less than 0.1 μM.
# [2] = Hepatocyte Stability Assay, rat hepatocytes; assay type: in vitro ADME; settings: cryopreserved rat hepatocytes, read-out: Rat hepatocyte clearance
# Description: (§1) Example 32: Hepatocyte Stability Assay
# (§2) Preparation of working solutions: 10 mM stock solutions of test compound and positive control were prepared in DMSO. In separate conical tubes, the 10 mM solution of test compound and the positive control were diluted to 100 μM by combining 198 μL of 50% acetonitrile/50% water and 2 μL of 10 mM stock.
# (§3) Preparation of Hepatocytes: Incubation medium (William's E Medium supplemented with GlutaMAX) and hepatocyte thawing medium were placed in a 37° C. water bath and allowed warming for at least 15 minutes prior to use. A vial of cryopreserved hepatocytes was transferred from storage, ensuring that vials remained at cryogenic temperatures until thawing process ensued. Cells were thawed by placing the vial in a 37° C. water bath and gently shaking the vials for 2 minutes. […] Using an AO/PI Staining, cells were counted and the viable cell density was determined. Cells with poor viability (<75% viability) were determined to be not acceptable for use. […]
# (§4) Data Analysis: All calculations were carried out using Microsoft Excel. Peak areas were determined from extracted ion chromatograms. In vitro half-life (t1/2) of parent compound was determined by regression analysis of the percent parent disappearance vs. time curve.
# (§5) The in vitro half-life (in vitro t1/2) was determined from the slope value: […]
# [3] = Hepatocyte Stability Assay, mouse hepatocytes; assay type: in vitro ADME; settings: cryopreserved mouse hepatocytes, read-out: Mouse hepatocyte clearance
# Description: as §1, §2, §3, §4, §5
# [4] = PBS pH 1.6, 25° C., read-out: Aq. Solubility at pH = 1.6
# [5] = PBS pH 7.4, 25° C., read-out: Aq. Solubility at pH = 7.4
SMILES,"solubility at 2 h [1, 4]","solubility at 2 h [1, 5]",CLint scaled at 1 µM [2],CLint scaled at 1 µM [3]
"CN(C)c1ccccc1-c1ccc2nc(NC(=O)c3ccnn3C)sc2n1 [Product 18, N-(5-(2-(dimethylamino)phenyl)thiazolo[5,4-b]pyridin-2-yl)-1-methyl-1H-pyrazole-5-carboxamide]",≥ 1 µM,≥ 1 µM,,
"Cc1ccccc1-c1ccc2nc(NC(=O)c3ccnn3C)sc2n1 [Product 15, 1-Methyl-N-(5-(o-tolyl)thiazolo[5,4-b]pyridin-2-yl)-1H-pyrazole-5-carboxamide]",0.1 to 1 µM,≥ 1 µM,> 50 mL/min/kg,
"Cc1ccccc1-c1ccc2nc(NC(=O)c3ccccn3)sc2n1 [Product 8, N-(5-(o-tolyl)thiazolo[5,4-b]pyridin-2-yl)picolinamide]",0.1 to 1 µM,< 0.1 µM,,> 50 mL/min/kg
"COc1ccccc1-c1ccc2nc(NC(=O)c3ccccn3)sc2n1 [Product 12, N-(5-(2-methoxyphenyl)thiazolo[5,4-b]pyridin-2-yl)picolinamide]",0.1 to 1 µM,0.1 to 1 µM,,

# The next lines start with the values.
"solubility at 2 h [1, 4]","solubility at 2 h [1, 5]",CLint scaled at 1 µM [2],CLint scaled at 1 µM [3],SMILES
≥ 1 µM,≥ 1 µM,,,"Cc1ccccc1-c1ccc2nc(NC(=O)N3CCOCC3)sc2n1 [Product 39, N-(5-(o-tolyl)thiazolo[5,4-b]pyridin-2-yl)morpholine-4-carboxamide]"
≥ 1 µM,0.1 to 1 µM,,,Cn1ncnc1C(=O)Nc1cnc2cc(-c3cc(F)ccc3C(F)F)[nH]c2c1 [Product 47]
≥ 1 µM,≥ 1 µM,> 50 mL/min/kg,> 50 mL/min/kg,"COc1ccccc1-c1ccc2nc(NC(=O)c3ccnn3C)sc2n1 [Product 25, N-(5-(2-methoxyphenyl)thiazolo[5,4-b]pyridin-2-yl)-1-methyl-1H-pyrazole-5-carboxamide]"
